This is an account of results in ChEMBL document CHEMBL1201862, “PubChem BioAssay data set” (2004).

The source made the active and inactive calls. A value given as a limit tells only on which side of the number the result lay.

What all share (format): functional
Test [1] concerns the target Glycogen synthase kinase-3 beta (Homo sapiens, UniProt P49841). The test can be described thus: GSK3beta kinase inhibitors, dose response, biochemical, microfluidics, dry powder samples, set 2 (AID 623989).
Test [2] concerns the target Glycogen synthase kinase-3 alpha (Homo sapiens, UniProt P49840). The test can be described thus: human GSK3 alpha kinase inhibition, dose response, selectivity assay for GSK3beta inhibitor project, biochemical, microfluidics, dry powder samples, set 2 (AID 623978).
Test [3] in a line: HEK293T cytotoxicity, dose response, cytotoxicity control for miR-122 modulator project, cell-based, inhibitor set, cherry-pick, set 2 (AID 720697).
Test [4] in a line: THP-1 cell cytotoxicity, cytotoxicity control, set 5 (AID 588443).
Test [5] in a line: HepG2 cell cytotoxicity, cytotoxicity control, set 5 (AID 588441). Particulars: Mycobacterium tuberculosis.
A short description of test [6]: Vero cell cytotoxicity, dose response, cytotoxicity control for M. tuberculosis inhibitor project, purified and synthesized compounds, set 6 (AID 588445). Particulars: Mycobacterium tuberculosis.
Test [7] is described as follows: A High Throughput Confirmatory Assay used to Identify Novel Compounds that Inhibit Mycobacterium Tuberculosis in the absence of Glycerol using Purified and Synthesized Compounds (3).
The target of test [8] is DNA dC->dU-editing enzyme APOBEC-3A (Homo sapiens, UniProt P31941). The test can be described thus: SAR analysis of small molecule inhibitors of APOBEC3A DNA Deaminase via a fluorescence-based single-stranded DNA deaminase assay - Set 2. As to conditions: read-out: IC50_Mean.
Test [9] deals with DNA dC->dU-editing enzyme APOBEC-3G (Homo sapiens, UniProt Q9HC16). The test can be described thus: SAR analysis of small molecule inhibitors of APOBEC3G DNA Deaminase via a fluorescence-based single-stranded DNA deaminase assay - Set 2. Particulars: read-out: IC50_Mean.
Test [10] has as its target Melanin-concentrating hormone receptor 1 (Homo sapiens, UniProt Q99705). Description: Late-stage fluorescence-based counterscreen for antagonists of the G-protein coupled receptor 7 (GPR7): cell-based dose response assay to identify antagonists of the melanin-concentrating hormone receptor 1 (MCHR1) Set 6.
Test [11] concerns the target T1, Neuropeptides B/W receptor type 1 (Homo sapiens, UniProt P48145).
T1 sequence (P48145 whole entry): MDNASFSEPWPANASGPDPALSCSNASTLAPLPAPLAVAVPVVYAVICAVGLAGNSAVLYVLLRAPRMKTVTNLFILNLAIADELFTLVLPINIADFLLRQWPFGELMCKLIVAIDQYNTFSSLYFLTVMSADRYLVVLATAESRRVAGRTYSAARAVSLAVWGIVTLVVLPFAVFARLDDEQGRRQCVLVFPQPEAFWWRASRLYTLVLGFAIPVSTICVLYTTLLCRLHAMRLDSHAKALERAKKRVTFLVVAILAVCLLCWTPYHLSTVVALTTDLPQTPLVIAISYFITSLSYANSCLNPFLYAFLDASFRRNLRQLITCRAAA
Description: GPR7 antagonist potency, late-stage follow-up, cell-based, fluorescence, dose response, set 6 (AID 588583).

The target of test [12] is Ribosomal protein S6 kinase alpha-3 (Homo sapiens, UniProt P51812).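 Note: measured within a kinome-wide profiling panel.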
Test [13] has as its target Dual specificity protein kinase CLK2 (Homo sapiens, UniProt P49760).
Test [14] has as its target Dual specificity mitogen-activated protein kinase kinase 1 (Homo sapiens, UniProt Q02750). Description: Navigating the Kinome. Panel member name: MAP2K1.
Test [15] concerns the target Tyrosine-protein kinase JAK2 (Homo sapiens, UniProt O60674).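 Note: JAK2 tested as one member of a kinase panel.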
The target in test [16] is 5'-AMP-activated protein kinase catalytic subunit alpha-1 (Homo sapiens, UniProt Q13131).
Test [17] concerns the target ALK tyrosine kinase receptor (Homo sapiens, UniProt Q9UM73).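 Note: ALK tested as one member of a kinase panel screen.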
The target of test [18] is Proto-oncogene tyrosine-protein kinase receptor Ret (Homo sapiens, UniProt P07949).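 Note: measured within a kinome-wide profiling panel, RET as the panel member.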
Test [19] concerns the target Tyrosine-protein kinase receptor TYRO3 (Homo sapiens, UniProt Q06418).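 Note: TYRO3 value obtained as one member of a kinome-wide profiling panel.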
The target of test [20] is Activin receptor type-1 (Homo sapiens, UniProt Q04771). The test can be described thus: Navigating the Kinome. Panel member name: ACVR1.
In test [21] the target is Serine/threonine-protein kinase pim-1 (Homo sapiens, UniProt P11309).
Chain of Serine/threonine-protein kinase pim-1 (P11309 whole entry): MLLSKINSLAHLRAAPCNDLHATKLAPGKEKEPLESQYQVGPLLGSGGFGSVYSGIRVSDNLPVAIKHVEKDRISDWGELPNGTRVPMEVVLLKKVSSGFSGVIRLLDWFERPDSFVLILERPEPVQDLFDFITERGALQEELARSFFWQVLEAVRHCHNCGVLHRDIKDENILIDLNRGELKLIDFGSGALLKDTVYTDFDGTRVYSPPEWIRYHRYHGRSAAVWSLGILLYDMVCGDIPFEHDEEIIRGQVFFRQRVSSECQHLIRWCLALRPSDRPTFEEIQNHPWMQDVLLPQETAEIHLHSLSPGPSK
The target in test [22] is Mast/stem cell growth factor receptor Kit (Homo sapiens, UniProt P10721).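 Note: KIT entry within a kinase panel assay.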
For test [23], the target named is Fibroblast growth factor receptor 1 (Homo sapiens, UniProt P11362).
Chain of Fibroblast growth factor receptor 1 (P11362 whole entry, canonical isoform): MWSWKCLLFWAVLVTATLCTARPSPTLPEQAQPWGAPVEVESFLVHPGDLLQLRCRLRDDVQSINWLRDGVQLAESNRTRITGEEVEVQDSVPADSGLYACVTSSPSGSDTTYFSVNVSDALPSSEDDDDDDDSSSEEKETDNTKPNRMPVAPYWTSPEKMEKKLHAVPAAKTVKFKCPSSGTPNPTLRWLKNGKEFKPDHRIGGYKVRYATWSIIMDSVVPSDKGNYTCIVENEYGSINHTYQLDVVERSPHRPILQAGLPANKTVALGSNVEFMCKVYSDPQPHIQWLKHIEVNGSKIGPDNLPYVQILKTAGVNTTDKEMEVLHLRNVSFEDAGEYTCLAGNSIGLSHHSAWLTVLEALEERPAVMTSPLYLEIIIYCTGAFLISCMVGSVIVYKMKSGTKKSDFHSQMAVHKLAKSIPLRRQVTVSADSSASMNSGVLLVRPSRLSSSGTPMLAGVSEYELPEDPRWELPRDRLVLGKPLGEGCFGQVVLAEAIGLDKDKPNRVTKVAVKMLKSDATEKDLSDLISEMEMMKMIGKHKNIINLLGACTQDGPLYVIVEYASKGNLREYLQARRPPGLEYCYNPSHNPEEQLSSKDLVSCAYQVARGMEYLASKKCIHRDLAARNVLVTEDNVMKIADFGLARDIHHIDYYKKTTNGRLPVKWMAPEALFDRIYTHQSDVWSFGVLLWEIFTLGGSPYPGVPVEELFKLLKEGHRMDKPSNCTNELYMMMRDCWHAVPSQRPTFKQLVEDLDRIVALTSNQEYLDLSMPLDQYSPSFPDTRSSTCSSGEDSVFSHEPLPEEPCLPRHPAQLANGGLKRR
Test [24] deals with Casein kinase I isoform alpha (Homo sapiens, UniProt P48729).
Chain of Casein kinase I isoform alpha (P48729 whole entry, canonical isoform): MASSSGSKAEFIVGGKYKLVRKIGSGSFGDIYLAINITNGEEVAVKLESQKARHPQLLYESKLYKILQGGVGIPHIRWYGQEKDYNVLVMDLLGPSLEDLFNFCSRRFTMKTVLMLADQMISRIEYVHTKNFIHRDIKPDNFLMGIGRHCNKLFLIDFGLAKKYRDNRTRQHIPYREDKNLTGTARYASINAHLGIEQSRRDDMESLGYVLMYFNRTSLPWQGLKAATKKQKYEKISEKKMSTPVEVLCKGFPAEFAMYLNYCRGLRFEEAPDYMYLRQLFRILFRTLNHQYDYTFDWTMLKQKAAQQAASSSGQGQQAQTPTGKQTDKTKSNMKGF
Test [25] addresses Tyrosine-protein kinase JAK3 (Homo sapiens, UniProt P52333).
Test [26] concerns the target Serine/threonine-protein kinase TAO1 (Homo sapiens, UniProt Q7L7X3).
Test [27] has as its target MAP/microtubule affinity-regulating kinase 3 (Homo sapiens, UniProt P27448).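 Note: MARK3 affinity measured as one member of a kinome panel.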
In test [28] the target is Activated CDC42 kinase 1 (Homo sapiens, UniProt Q07912). Description: Navigating the Kinome. Panel member name: ACK1.
Test [29] has as its target Vascular endothelial growth factor receptor 2 (Homo sapiens, UniProt P35968).
The target in test [30] is G protein-coupled receptor kinase 5 (Homo sapiens, UniProt P34947). The test can be described thus: Navigating the Kinome. Panel member name: GPRK5.
The target in test [31] is Dual specificity tyrosine-phosphorylation-regulated kinase 1B (Homo sapiens, UniProt Q9Y463). Description: Navigating the Kinome. Panel member name: DYRK1B.
Test [32] concerns the target cAMP-dependent protein kinase catalytic subunit PRKX (Homo sapiens, UniProt P51817).
In test [33] the target is Leucine-rich repeat serine/threonine-protein kinase 2 (Homo sapiens, UniProt Q5S007).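 Note: value from a broad kinome-wide panel profiling study in which LRRK2 was one of the kinases tested.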
Chain of Leucine-rich repeat serine/threonine-protein kinase 2 (Q5S007 whole entry): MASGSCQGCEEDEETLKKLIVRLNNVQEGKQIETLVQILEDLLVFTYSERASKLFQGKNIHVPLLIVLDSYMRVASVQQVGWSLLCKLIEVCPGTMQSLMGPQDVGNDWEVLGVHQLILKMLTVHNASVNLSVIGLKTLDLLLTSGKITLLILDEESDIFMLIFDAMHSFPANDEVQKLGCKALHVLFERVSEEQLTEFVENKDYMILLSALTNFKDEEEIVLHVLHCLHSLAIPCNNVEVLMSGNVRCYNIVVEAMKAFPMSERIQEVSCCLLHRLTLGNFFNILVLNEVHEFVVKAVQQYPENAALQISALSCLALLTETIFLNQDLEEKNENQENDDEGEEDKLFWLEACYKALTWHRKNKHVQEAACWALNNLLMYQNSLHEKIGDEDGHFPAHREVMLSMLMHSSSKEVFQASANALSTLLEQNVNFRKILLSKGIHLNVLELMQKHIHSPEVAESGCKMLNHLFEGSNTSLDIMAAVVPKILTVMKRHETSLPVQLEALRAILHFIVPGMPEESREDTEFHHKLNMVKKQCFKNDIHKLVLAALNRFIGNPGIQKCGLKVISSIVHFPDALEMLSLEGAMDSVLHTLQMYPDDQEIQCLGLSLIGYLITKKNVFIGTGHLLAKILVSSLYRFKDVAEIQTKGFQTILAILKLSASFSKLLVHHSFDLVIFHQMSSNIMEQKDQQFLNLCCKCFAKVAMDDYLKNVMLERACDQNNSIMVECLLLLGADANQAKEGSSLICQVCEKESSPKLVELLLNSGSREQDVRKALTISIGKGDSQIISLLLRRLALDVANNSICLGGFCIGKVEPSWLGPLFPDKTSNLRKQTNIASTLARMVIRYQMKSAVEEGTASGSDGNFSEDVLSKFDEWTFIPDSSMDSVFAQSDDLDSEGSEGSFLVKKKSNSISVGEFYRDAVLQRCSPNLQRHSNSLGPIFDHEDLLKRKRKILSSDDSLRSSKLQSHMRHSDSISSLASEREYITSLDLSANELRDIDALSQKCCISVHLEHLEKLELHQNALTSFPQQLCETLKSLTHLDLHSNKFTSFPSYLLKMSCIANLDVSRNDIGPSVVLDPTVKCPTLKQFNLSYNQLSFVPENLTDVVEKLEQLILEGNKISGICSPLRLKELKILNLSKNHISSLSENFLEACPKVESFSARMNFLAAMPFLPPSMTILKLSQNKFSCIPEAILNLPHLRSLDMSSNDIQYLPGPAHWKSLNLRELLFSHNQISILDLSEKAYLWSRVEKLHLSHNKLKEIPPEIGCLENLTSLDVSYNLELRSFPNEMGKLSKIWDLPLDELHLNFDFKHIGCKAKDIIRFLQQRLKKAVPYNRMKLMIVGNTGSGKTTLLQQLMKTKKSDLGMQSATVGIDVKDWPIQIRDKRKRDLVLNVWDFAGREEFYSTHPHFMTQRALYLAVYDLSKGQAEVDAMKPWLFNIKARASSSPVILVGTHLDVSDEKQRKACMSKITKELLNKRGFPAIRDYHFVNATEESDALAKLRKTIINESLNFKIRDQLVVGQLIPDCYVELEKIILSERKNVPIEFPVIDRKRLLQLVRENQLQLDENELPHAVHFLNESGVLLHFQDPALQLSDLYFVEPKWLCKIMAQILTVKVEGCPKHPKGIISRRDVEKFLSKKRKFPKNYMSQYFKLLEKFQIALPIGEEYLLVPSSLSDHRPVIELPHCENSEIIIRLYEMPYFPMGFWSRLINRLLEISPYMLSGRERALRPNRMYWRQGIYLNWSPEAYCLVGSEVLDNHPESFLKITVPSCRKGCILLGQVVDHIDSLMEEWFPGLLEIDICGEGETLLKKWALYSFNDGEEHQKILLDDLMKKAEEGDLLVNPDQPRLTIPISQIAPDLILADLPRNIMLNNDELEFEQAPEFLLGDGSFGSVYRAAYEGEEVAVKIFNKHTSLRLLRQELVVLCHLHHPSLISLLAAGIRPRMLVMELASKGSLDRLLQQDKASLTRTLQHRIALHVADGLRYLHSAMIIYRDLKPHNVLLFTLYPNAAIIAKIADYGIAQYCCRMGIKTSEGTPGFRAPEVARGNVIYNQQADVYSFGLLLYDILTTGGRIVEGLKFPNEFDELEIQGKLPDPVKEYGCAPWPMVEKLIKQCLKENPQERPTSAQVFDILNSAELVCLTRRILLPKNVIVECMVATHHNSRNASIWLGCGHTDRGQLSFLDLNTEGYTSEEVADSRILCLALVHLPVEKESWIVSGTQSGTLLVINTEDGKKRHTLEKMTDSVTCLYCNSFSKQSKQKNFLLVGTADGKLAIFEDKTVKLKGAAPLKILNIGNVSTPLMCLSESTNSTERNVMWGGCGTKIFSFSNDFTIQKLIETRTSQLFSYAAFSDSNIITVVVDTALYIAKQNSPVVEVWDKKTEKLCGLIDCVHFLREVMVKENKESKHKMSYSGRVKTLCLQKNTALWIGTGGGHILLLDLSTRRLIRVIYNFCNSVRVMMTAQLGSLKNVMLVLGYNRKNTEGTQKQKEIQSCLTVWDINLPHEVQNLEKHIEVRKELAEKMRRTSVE
The target in test [34] is Rho-associated protein kinase 1 (Homo sapiens, UniProt Q13464).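 Note: measured within a broad kinome-wide panel profiling many kinases.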
For test [35], the target named is Cyclin-dependent kinase 8 (Homo sapiens, UniProt P49336). The test can be described thus: Navigating the Kinome. Panel member name: CDK8.
In test [36] the target is Vascular endothelial growth factor receptor 1 (Homo sapiens, UniProt P17948).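 Note: measured within a kinome-wide profiling panel, FLT1 as the panel member.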
Test [37] concerns the target Dual specificity protein kinase CLK4 (Homo sapiens, UniProt Q9HAZ1).
The target in test [38] is Mitogen-activated protein kinase kinase kinase kinase 4 (Homo sapiens, UniProt O95819).
Test [39] addresses Macrophage-stimulating protein receptor (Homo sapiens, UniProt Q04912). Description: Navigating the Kinome. Panel member name: MST1R.
Test [40] concerns the target Dual specificity tyrosine-phosphorylation-regulated kinase 1A (Homo sapiens, UniProt Q13627).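 Note: measured against DYRK1A as one member of a broad kinome profiling panel.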
For test [41], the target named is Inhibitor of nuclear factor kappa-B kinase subunit epsilon (Homo sapiens, UniProt Q14164). The test can be described thus: Navigating the Kinome. Panel member name: IKBKE.
In test [42] the target is Mitogen-activated protein kinase 10 (Homo sapiens, UniProt P53779). The test can be described thus: Navigating the Kinome. Panel member name: MAPK10.
For test [43], the target named is Leukocyte tyrosine kinase receptor (Homo sapiens, UniProt P29376). Description: Navigating the Kinome. Panel member name: LTK.

Chain of Tyrosine-protein kinase JAK3 (P52333 whole entry): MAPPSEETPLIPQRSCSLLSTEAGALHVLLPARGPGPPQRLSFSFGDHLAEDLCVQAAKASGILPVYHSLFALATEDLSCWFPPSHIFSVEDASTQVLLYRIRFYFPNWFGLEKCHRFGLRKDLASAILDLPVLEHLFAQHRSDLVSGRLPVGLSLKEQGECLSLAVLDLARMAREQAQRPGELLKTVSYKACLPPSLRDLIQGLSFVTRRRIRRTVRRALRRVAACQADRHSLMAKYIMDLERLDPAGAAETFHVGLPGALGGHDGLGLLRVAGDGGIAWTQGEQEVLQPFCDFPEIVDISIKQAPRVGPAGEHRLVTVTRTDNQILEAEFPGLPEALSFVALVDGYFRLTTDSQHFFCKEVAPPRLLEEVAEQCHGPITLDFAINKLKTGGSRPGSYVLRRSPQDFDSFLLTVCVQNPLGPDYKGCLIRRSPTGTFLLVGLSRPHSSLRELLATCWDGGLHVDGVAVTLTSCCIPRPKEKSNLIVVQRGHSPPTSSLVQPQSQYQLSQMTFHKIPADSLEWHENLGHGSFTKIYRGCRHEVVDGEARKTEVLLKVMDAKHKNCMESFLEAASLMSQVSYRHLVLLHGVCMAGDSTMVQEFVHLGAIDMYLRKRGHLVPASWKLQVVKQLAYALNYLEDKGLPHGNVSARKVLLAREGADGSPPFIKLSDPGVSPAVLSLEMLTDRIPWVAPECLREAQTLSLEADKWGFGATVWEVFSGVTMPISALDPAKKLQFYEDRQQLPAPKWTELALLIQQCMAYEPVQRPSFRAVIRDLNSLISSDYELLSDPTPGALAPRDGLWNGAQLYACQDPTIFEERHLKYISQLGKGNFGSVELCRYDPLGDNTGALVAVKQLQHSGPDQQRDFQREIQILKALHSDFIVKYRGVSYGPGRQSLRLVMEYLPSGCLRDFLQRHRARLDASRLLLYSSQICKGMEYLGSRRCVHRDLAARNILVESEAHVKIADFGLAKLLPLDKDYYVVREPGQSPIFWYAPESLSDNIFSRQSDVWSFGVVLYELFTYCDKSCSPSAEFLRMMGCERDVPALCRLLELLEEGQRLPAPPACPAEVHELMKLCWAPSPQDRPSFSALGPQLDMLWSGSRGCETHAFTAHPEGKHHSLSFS

For the compound `Clc1ccc(CSc2nnc(-c3ccncc3)o2)c(Cl)c1`, the AC50 in test [1] was 1.83 µM (active); in test [2], 24 µM (active); in test [3], 8.31 µM (active).

`Cc1cccc(N2CCN(C(=O)c3ccc(CNc4c(N5CCC(C)CC5)c(=O)c4=O)cc3)CC2)c1C`: the results for the CC50 in [4], in test [5] and in test [6] were 8.21 µM (active), > 15 µM (active) and > 30 µM (active), respectively. Further, the IC50 in test [7] was > 25 µM (active).

On to `CCCn1c(=O)c2ccccc2n2c(SC)nnc12`, for which the IC50 in [8] and in test [9] was > 99 µM (inactive) in each case.

`N#CC(c1ccc2c(c1)OCO2)c1c(Cl)cnn(Cc2cccc3ccccc23)c1=O` (stereo not drawn): the IC50 in test [10] and in test [11] was 0.41 µM (active) in each case.

In the case of `O=C(Nc1cccc(C(F)(F)F)n1)Nc1ccnc2ccc(F)cc12`, the Ki in test [12] is > 3.98 µM (inactive); in [13], 3.16 µM (active); in test [14], > 3.16 µM (inactive); in test [15], > 2.51 µM (inactive); in [16] it was > 3.16 µM (inactive); in test [17], > 6.31 µM (inactive). Moreover, the Ki in test [18] is > 3.16 µM (inactive); in test [19] it was > 3.16 µM (inactive); in test [20], 1.58 µM (active); in [21] it was > 6.31 µM (inactive); in test [22], > 6.31 µM (inactive); in test [23], > 3.98 µM (inactive). In addition, the Ki in [24] is > 3.98 µM (inactive); in test [25] it was > 5.01 µM (inactive); in test [26], > 2.51 µM (inactive); in [27], > 5.01 µM (inactive); in [28], > 3.98 µM (inactive); in test [29] it was > 2.51 µM (inactive). Further, the Ki in [30] is > 3.98 µM (inactive); in [31], 2 µM (active); in test [32], > 3.16 µM (inactive); in [33], > 2.51 µM (inactive); in [34], > 3.98 µM (inactive); in test [35], 0.0794 µM (active). In addition, the Ki is > 3.98 µM (inactive) in [36]; 0.1 µM (active) in test [37]; > 5.01 µM (inactive) in test [38]; > 3.98 µM (inactive) in test [39]; > 2 µM (inactive) in test [40]; > 3.16 µM (inactive) in [41]. Besides, the Ki in [42] and in [43] was > 3.16 µM (inactive) each time.
